Data set [1] relates to C. elegans. The experiment in a line: Life span assay on Automated Lifespan Machine (SND302, SND303). It counts as in vivo. As to conditions: for Maximum life span: average lifespan of the ten longest-lived worms; for Age in days at 25% mortality / Age in days at 50% mortality / Age in days at 75% mortality / Age in days at 90% mortality / Age in days at 100% mortality: SND302, SND303 25 μM, Uro A, Resveratrol 50 μM. Here is the method: An additional life span assay using an adapted standard protocol employed and published by the C. elegans Intervention Testing Program, or CITP was employed to assess the activity of SND302 and SND303. A positive and a negative control were included in the assay. In a preliminary experiment the optimal conditions for the life span analysis was determined and the stress level induced by the compounds as well as toxicity were measured.
For the life span assay over 300 worms per conditions were used and the study was conducted by InVivoBiosystems (USA) using an Automated Lifespan Machine (ALM) with proprietary modifications to improve temperature stability and image acquisition.
To prevent chemical modification or metabolism of the test article by the food bacteria, worms were fed on a lawn of UV-killed bacteria (UV-i bacteria). An overnight culture of E. coli strain WP-2 was pelleted, washed, filtered, and irradiated. A suspension of UV-i bacteria was spotted on NGM agar containing Streptomycin to inhibit growth of contaminating bacteria. The quantity and distribution of food bacteria was calibrated to ensure adequate access to food for the duration of assay while maintaining visibility of the worms.
Test article was delivered to worms by a method compatible with and previously validated on the Automated Lifespan Machine and used by the CIT [Lucanic, et. al. Impact of genetic background and experimental reproducibility on identifying chemical compounds with robust longevity effects. Nature Communications 8 (2017)]. A 200× stock solution was freshly prepared in DMSO immediately before application. 40 μl of DMSO stock (0.5% plate volume) was applied to the plate to coat the food bacteria and then chased immediately with 160 μl water to uniformly distribute a fine precipitate across the surface of the plate. This functioned to provide reservoirs of compound in food, agar, and agar surface.
The ALM used by InVivoBiosystems is based on the Caenorhabditis elegans lifespan machine published by Stroustrup, N. et al. The Caenorhabditis elegans Lifespan Machine. N at Methods 10, 665-670 (2013), with proprietary modifications to improve temperature stability and image acquisition. The scanner unit consists of a modified EPSON V850 and images are processed and analyzed using the ALM software 7. The machine time-of-death calls are trained and validated using the “storyboarding” feature of the ALM software.
The lifespan assay was designed and performed according to published and validated methods, Amrit, F. R. G., Ratnappan, R., Keith, S. A. & Ghazi, A. The C. elegans lifespan assay toolkit. Methods 68, 465-475 (2014); Lucanic, et. al. Manual Lifespan Assay Standard Operating Procedure. Caenorhabditis Intervention Testing Program https://figshare.com/articles/7_CITP_SOP_Manual_Lifespan_Assay/9738197/1. using a modified version of the Automated Lifespan Machine. Worms were age synchronized by bleaching and eggs were plated directly onto NGM agar seeded with UV-I bacteria (Day 1, hatch). On Day 3, when the worms had reached the late L4 stage, they were transferred to dishes containing 100 μM 5-Fluorodeoxyuridine (FUdR) to suppress progeny. On day 5, the worms were washed off the dishes and 30-50 worms were plated on each scanner dish. Plates were immobilized inverted on the bed of an Automated Lifespan Machine which scanned two images per hour of the plates continuously for the next 40 days.
Time of death calls exported from the ALM software were analyzed and plotted using the Lifelines software package developed by Davidson-Pilon, (2019). lifelines: survival analysis in Python. Journal of Open Source Software, 4(40), 1317.

Data set [2] relates to N2 wild type strain of worms. The data set is described as follows: Toxicity and food avoidance test in worms (SND301). Format: in vivo, C. elegans. As to conditions: concentrations up to 50 μM, from embryo to first day of adulthood. Here is the method:
In a first stage of this study, normal worms were treated with various concentrations of SND301 to test toxicity and food avoidance.
To test food avoidance worms were placed on agar plates containing a grid of alternating control and compound-containing food spots. The number of worms on each food spot was recorded every two hours.

The subject of data set [3] is human hepatocytes. The data set is described as follows: Cytotoxicity (LDH leakage, membrane integrity) in primary human hepatocytes. It counts as cell-based. As to conditions: 1 to 100 μM, 24 h exposure, pooled human hepatocytes. Here is the method: (§1) Cytotoxicity potency of test compound SND301 was assayed in human hepatocytes from pooled donor lots at three concentrations; 1, 10 and 100 μM. Cytotoxicity was assayed from medium samples after 24 h exposure period with test compounds by measuring membrane integrity (LDH leakage), coupled to fluorescent signal. In parallel, cell viability was assayed by the means of ATP content, indicating the metabolically competent cell activity. ATP content was measured based on luciferase catalysed reaction generating stable bioluminescent signal. Cytotoxic positive control compound was used: chlorpromazine at 5-250 μM.
(§2) Cryopreserved human hepatocytes from pooled donor lot (Bioreclamation IVT) were seeded on collagen I coated 96-well plates (Corning Biocoat) at 0.55×10^5 cells per well in 120 μl InVitroGRO™ CP medium (BioIVT), including additives Torpedo Antibiotic mix (BioIVT). […] Cytotoxicity and cell viability were evaluated based on LDH release in medium and ATP content in the cells after 24 hours exposure phase.
After 24 h exposure half of the culture medium (50 μl) was transferred to black opaque-walled 96-well plate (Corning #3603) for LDH measurements and allowed to settle to room temperature. […] Thereafter the samples were analysed with plate reader for fluorescence (LDH; 560ex, 590em).
(§3) Both LDH and ATP assays were measured 1-2 hours post treatment with assay components.

The subject of data set [4] is human hepatocytes. The experiment in a line: Cell viability (ATP content) in primary human hepatocytes. It counts as cell-based. As to conditions: 1 to 100 μM, 24 h exposure, pooled human hepatocytes. On the procedure:
as §1, §2
The remaining medium and cells were used for the assessment of metabolically competent cells (ATP) according to the manufacturer's (Promega) protocol. […] The samples were transferred to white opaque-walled 96-well plate (Corning #3610) after which measured with plate reader for luminescence.
as §3

Data set [5] deals with N2 wild type strain of worms. The experiment in a line: C. elegans life span (survival) assay, manual scoring (SND301). As to conditions: for Death events / Maximum life span / Median lifespan: SND301 and Urolithin A 50 μM; for % Complete: deaths attributed to aging from total worm population. It counts as in vivo. Here is the method: The survival assay was conducted in the presence of 50 μM SND301 with measurements of live, dead, and censored worms at time points every 2-3 days from the start of adulthood.
Thioflavin T was used in the assay as a positive control [Gamir-Morralla A et al, 2019, “Effects of Thioflavin T and GSK-3 Inhibition on Lifespan and Motility in a Caenorhabditis elegans Model of Tauopathy”, J Alzheimers Dis Rep., 3(1): 47-57]. Vehicle 25% and 1% DMSO were used as controls and represent the vehicles in which compounds and bacteria or bacteria alone respectively were resuspended. The final DMSO concentration in the agar plates was 0.5% and 0.02% respectively.
5 mM DMSO stock solutions for each compound were prepared in high-grade DMSO. Stocks were protected from light and stored in glass vials at 21° C. in a temperature-controlled room (to avoid freeze/thaw of DMSO). A fresh stock was prepared at the start of each experiment and stored for <1 week.
The lifespan assay was designed and performed according to published and validated methods with modifications for chemical treatment [Amrit F R G et al, 2014, “The C. elegans lifespan assay toolkit”, METHODS 68, 465-475; Leukanic, et. Al, “Manual Lifespan Assay Standard Operating Procedure”, Caenorhabditis Intervention Testing Program, https://figshare.com/articles/7_CITP_SOP_Manual_Lifespan_Assay/9738197/1]. Plates were seeded with compound dissolved in 25% DMSO and bacteria. The DMSO diffused through the agar to reach a final concentration of 0.5%. Synchronized day 1 adult worms were transferred to seeded plates containing compound and allowed to lay eggs for 2 hours (Day 0, “hatchoff”). The young adults were then removed, and the eggs were incubated at 20° C. until they had reached the young adult stage (day 3). 200 young adult worms per treatment were transferred to 8 fresh seeded 35 mm dishes with compound and 50 μM 5-Fluorodeoxyuridine to suppress progeny. […] Worms that were missing, stuck to the dish, burrowed, injured, or exploded were scored as censored and removed from the plate. To maintain chemical exposure at the experimental concentrations, worms were transferred every other scoring day to new seeded plates with compound.

In data set [6] the test system is C. elegans gene expression. The data set is described as follows: Whole transcriptome analysis (RNA-Seq) of treated worms. It counts as in vivo. As to conditions: for Significant differentially-expressed genes: 25 μM. On the procedure:
To determine the mode of action for SND302 and SND303 the gene transcription in young and aged adults was analyzed by RNA-Seq (whole transcription analysis). For each condition, >300 worms were treated in parallel with the lifespan assay and maintained under identical conditions.
Differential gene expression was performed with EdgeR using […] likelihood ratio tests based on fitting linear models. The likelihood ratios were used to determine the p-values which were subsequently corrected for using the BH false discovery rate (fdr) method. Eventually, differential expressed genes were defined as genes with fdr-corrected p-value of 0.05 or lower, as well as a change in expression of at least 2-fold in a given between-group comparison. Compounds SND302 and SND303 were compared against Urolithin and Vehicle control. […] In general the transcriptomic data corroborates a differential effect for SND303 when compared to SND302 (FIGS. 1-4).
Worms for RNA-Seq were split from the same synchronized pool of worms for the lifespan with each of the three replicates being maintained and treated in parallel. More than 150 worms per replicate were harvested, cleaned by filtration, and frozen at −80° in Trizol. To extract RNA, samples were thawed, vigorously vortexed, and processed using the Direct-zol RNA Miniprep Kit (Zymo Research). All samples exceeded our threshold for RNA quantity and quality. RNA samples were submitted to Novogene Co. Ltd and subjected to more stringent QC, being tested on a Qubit for concentration and run on an agarose gel and on the Agilent […] assess RNA quality and integrity. […] The total RNA was then enriched for poly-mRNA using oligo(dT) paramagnetic beads. DNA libraries were then constructed from this input mRNA using the NEBNext Ultra™ II RNA Library Prep Kit.
These libraries were then further tested by the Qubit for concentration and the Agilent 2100 for library size distribution and quality. In order to properly pool the libraries and load them onto sequencing lanes to ensure the correct number of reads per sample, an even more precise quantification of the library was done via qPCR, and the samples were loaded onto the NovaSeq 6000 platform for a paired-end sequencing run of 150 bp for each end (PE150). The loading concentrations were designed to obtain at least 6.0 Gb (which is the number of billion bases of raw data, determined by the number of reads multiplied by the length of each read). A mean of 7.4 Gb (median 7.3 Gb) raw sequencing data was obtained across all samples, with a minimum of 6.3 Gb and a maximum of 8.5 Gb raw data. Sequencing run data quality control was performed both by Novogene and by an in-house analysis. The raw data set was analyzed for parameters such as the distribution of base quality along the length of the sequencing read, the distribution of error rate along the length of the sequencing read. Reads containing adapter sequences, with N>10% (where N means “base cannot be determined”) and with a low quality (Qscore<=5) for 50% or more of its total bases were removed.

Where [7] appears, read: Table 1A, at a certain point during the study, N2.

“Also recorded” adds a separate entry of the source.

As to `Oc1ccc(C=Cc2cc(O)cc(O)c2)cc1` [Resveratrol, reference compound], in data set [1] (50 μM), the “Median lifespan” value was found to be 28.2 days and the “Maximum life span” value came to 36.6 days. In data set [1], the “Age in days at 25% mortality” value was 24.6 days, the “Age in days at 50% mortality” value worked out at 28.2 days, the “Age in days at 75% mortality” value stood at 30.5 days and the “Age in days at 90% mortality” value was found to be 32.7 days. For the same compound, the “Age in days at 100% mortality” value in data set [1] was found to be 37.8 days.
With `CNC(=O)Oc1ccc2c(c1)oc(=O)c1cc(OC(=O)NC)ccc12` [SND301], the Tolerability of exposure result in data set [2] is given as “well tolerated”. In data set [3], the “Cytotoxicity (LDH) leakage” value is reported as 7-10%. For the same compound, the ATP content in data set [4] is on record as 72-103%. Further, the “Effect on lifespan” value in data set [5] (50 μM, in words) is “significantly increased life span; also recorded: significantly increased median lifespan”. In data set [5] (setting [7]), the Death events stood at 59 and the “% Complete” value came to 31.6%. The same compound showed a Death events in data set [5] (Table 1B, end of the study) of 179. For the same compound, in data set [5] (end of the study), the “Maximum life span” value amounted to 31 days and the “Median lifespan” value is listed as 24 days. Further, the Surviving fraction entry in data set [5] (until day 24, compared with all groups) is “highest surviving fraction by a considerable margin”.
As for `CCNC(=O)Oc1ccc2c(c1)oc(=O)c1cc(OC(=O)NCC)ccc12` [SND302], in data set [6] (Day 3, compared to the controls (Vehicle and Urolithin A)), the Significant differentially-expressed genes is on record as 7-8 genes. The “Expression of gene C50F7.5” value in data set [6] (Day 10) was “significantly upregulated”. Further, the Significant differentially-expressed genes in data set [6] (Day 10, compared to the controls (Vehicle and Urolithin A)) is 12-14 genes. Also, the “Toxicity and stress response induction (transcriptome)” value in data set [6] (early exposure period) was “some signs of toxicity and stress response induction”. Besides, in data set [1] (25 μM), the “Median lifespan” value stood at 28.2 days and the “Maximum life span” value is listed as 36.1 days. For the same compound, in data set [1] (25 μM, area under the survival curve), the “Mean lifespan” value stood at 27.0 days. Moreover, in data set [1], the “Age in days at 25% mortality” value came out at 24.2 days, the “Age in days at 50% mortality” value came out at 28.2 days, the “Age in days at 75% mortality” value amounted to 31.0 days and the “Age in days at 90% mortality” value worked out at 33.0 days. In addition, the “Age in days at 100% mortality” value in data set [1] stood at 37.9 days. Moreover, in data set [1] (in words, compared to control), the Effect on lifespan result is reported as “did not show a significant difference from the control”.
As to `Cc1ccc2c(c1)sc(-c1ccc(N(C)C)cc1)[n+]2C.[Cl-]` [Thioflavin, Thioflavin T], in data set [5] (setting [7]), the Death events came out at 38 and the “% Complete” value stood at 23.2%. Besides, the Death events in data set [5] (Table 1B, end of the study) turned out to be 38. Besides, in data set [5] (end of the study), the “Maximum life span” value is on record as 33 days and the “Median lifespan” value is 21 days.

The values above are taken from patent publication US12264142B2, “Heterocyclic compounds” (FLORATEK PHARMA SA, priority 2019, dated 2025).
